From patent US9902725B2, “Heterocyclic derivatives as RORgamma modulators” (GENFIT, priority 2014, dated 2018)
pIC50: −log10 of the molar value.

How the values were obtained:
[1] = target: T1, RORγt ligand-binding domain (RORγt-LBD) (Homo sapiens, UniProt P51449); test: Time-resolved FRET (TR-FRET) RORγt coactivator assay; format: biochemical; details: GST-RORγ-LBD, biotinylated RIP140 peptide, coactivator displacement
T1 construct: 20 nM recombinantly expressed RORγ-LBD fused to GST
T1 sequence (P51449 269-508 limits assumed): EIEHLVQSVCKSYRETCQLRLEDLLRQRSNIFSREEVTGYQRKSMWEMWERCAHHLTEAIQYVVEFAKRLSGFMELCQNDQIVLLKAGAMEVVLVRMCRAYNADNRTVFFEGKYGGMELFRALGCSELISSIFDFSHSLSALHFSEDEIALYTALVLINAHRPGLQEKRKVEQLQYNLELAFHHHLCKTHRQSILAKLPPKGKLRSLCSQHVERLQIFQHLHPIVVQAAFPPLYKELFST

human RORγt = target: T2, human RORγt (Homo sapiens, UniProt P51449); test: IL-17 secretion from EL4 murine lymphoma overexpressing human RORγt; format: cell-based; parameters: expressed in transfected cells; host or cells: EL-4 murine lymphoma; details: IL-17 secretion inhibition, PMA and ionomycin stimulation, 24 h
T2 sequence (P51449 1-497 isoform P51449-2): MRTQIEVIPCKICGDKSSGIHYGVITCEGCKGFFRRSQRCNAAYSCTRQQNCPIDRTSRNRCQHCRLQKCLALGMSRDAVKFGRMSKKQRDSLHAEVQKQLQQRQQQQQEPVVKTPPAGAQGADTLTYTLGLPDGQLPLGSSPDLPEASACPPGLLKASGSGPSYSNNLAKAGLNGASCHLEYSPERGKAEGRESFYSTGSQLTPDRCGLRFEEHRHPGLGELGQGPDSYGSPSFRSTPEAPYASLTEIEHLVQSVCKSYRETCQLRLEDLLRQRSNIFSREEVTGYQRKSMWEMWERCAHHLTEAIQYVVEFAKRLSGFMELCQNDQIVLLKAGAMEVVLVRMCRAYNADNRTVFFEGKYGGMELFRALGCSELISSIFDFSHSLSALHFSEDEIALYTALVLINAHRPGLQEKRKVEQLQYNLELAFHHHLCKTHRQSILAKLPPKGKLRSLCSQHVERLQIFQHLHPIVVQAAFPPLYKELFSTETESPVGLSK
Description: Murine EL-4 lymphoma cell line overexpressing human RORγt was used in this functional assay to assess compound ability to inhibit IL-17 cytokine secretion.
EL-4 cells are maintained in a standard culture medium RPMI supplemented with 10% fetal calf serum, 1% sodium pyruvate, 1% essential amino acids and 1% antibiotics at 37° C. in a humidified atmosphere of 5% CO2 and 95% air. Culture medium was changed every 2 days. EL4 cells were transfected with a plasmid encoding hRORγt (sequence identical to published sequence NM 001001523). […] Briefly, 1 μg of DNA/1 million cells was served to transfect EL-4 cells. Cell/DNA suspension was transferred into certified cuvette and the electroporation of RORγt plasmid was carried out using appropriate Nucleofector® program.
Cells were seeded in 96 well plates at a density of 150000 cells/well then treated with compounds of this invention at indicated concentrations and incubated for 24 hours at 37° C. in a humidified atmosphere of 5% CO2 and 95% air. EL-4 cells were pretreated with test compounds (RORγ modulators) and stimulated with PMA (10 ng/mL) and ionomycin (1 μM final concentration) in the presence of test compound concentrations for additional 24 h at 37° C. in a humidified atmosphere of 5% CO2 and 95% air. Subsequently, supernatants were collected (after centrifugation at 300 g for 10 minutes) to determine the concentrations of IL-17 by HTRF (CisBio, France) or ELISA (R&D Systems Europe) according to the manufacturer's protocols.

| pIC50 [1] | pIC50 (human RORγt) | Structure (SMILES) |
| --- | --- | --- |
| 5.00 to 6.00 | 4.52 to 5.00 | Cc1cc(Br)ccc1C(NC(=O)Cc1ccc2[nH]cc(CCC(=O)OC(C)(C)C)c2c1)c1ccccc1 (stereo not drawn) [Cpd. 43, tert-butyl 3-[5-({[(4-bromo-2-methylphenyl)(phenyl)methyl]carbamoyl}methyl)-1H-indol-3-yl]propanoate] |
| 5.00 to 6.00 | 5.00 to 6.00 | CC(C)(C)OC(=O)CCc1c[nH]c2ccc(CC(=O)NC(c3ccccc3)c3ccc(C(F)(F)F)cc3N3CCCC3)cc12 (stereo not drawn) [Cpd. 47, tert-butyl 3-{5-[({phenyl[2-(pyrrolidin-1-yl)-4-(trifluoromethyl)phenyl]methyl}carbamoyl)methyl]-1H-indol-3-yl}propanoate] |
| 5.00 to 6.00 | 5.00 to 6.00 | CC(C)(C)OC(=O)CCc1c[nH]c2ccc(CC(=O)NC(c3ccccc3)c3ccc(Br)cc3N3CCCC3)cc12 (stereo not drawn) [Cpd. 49, tert-butyl 3-{5-[({[4-bromo-2-(pyrrolidin-1-yl)phenyl](phenyl)methyl}carbamoyl)methyl]-1H-indol-3-yl}propanoate] |
| > 6.00 | 5.00 to 6.00 | CC(C)(C)OC(=O)CCc1c[nH]c2ccc(CC(=O)NC(c3ccccc3)c3ccc(C#N)cc3N3CCCC3)cc12 (stereo not drawn) [Cpd. 59, tert-butyl 3-{5-[({[4-cyano-2-(pyrrolidin-1-yl)phenyl](phenyl)methyl}carbamoyl)methyl]-1H-indol-3-yl}propanoate] |
| > 6.00 | > 6.00 | COC(=O)Cc1c[nH]c2ccc(CC(=O)NC(c3ccccc3)c3ccc(C)cc3N3CCCC3)cc12 (stereo not drawn) [Cpd. 64, methyl 2-{5-[({[4-methyl-2-(pyrrolidin-1-yl)phenyl](phenyl)methyl}carbamoyl)methyl]-1H-indol-3-yl}acetate] |
| > 6.00 | 5.00 to 6.00 | Cc1ccc(C(NC(=O)Cc2ccc3[nH]cc(CCC(=O)OC(C)(C)C)c3c2)c2ccccc2)c(N2CCCCC2)c1 (stereo not drawn) [Cpd. 76, tert-butyl 3-{5-[({[4-methyl-2-(piperidin-1-yl)phenyl](phenyl)methyl}carbamoyl)methyl]-1H-indol-3-yl}propanoate] |
| 5.00 to 6.00 | 5.00 to 6.00 | CC(C)(C)OC(=O)CCc1c[nH]c2ccc(CC(=O)NC(c3ccccc3)c3ccccc3N3CCCC3)cc12 (stereo not drawn) [Cpd. 78, tert-butyl 3-{5-[({phenyl[2-(pyrrolidin-1-yl)phenyl]methyl}carbamoyl)methyl]-1H-indol-3-yl}propanoate] |
| > 6.00 | 5.00 to 6.00 | COc1ccc(C(NC(=O)Cc2ccc3[nH]cc(CCC(=O)OC(C)(C)C)c3c2)c2ccccc2)c(C)c1 (stereo not drawn) [Cpd. 82, tert-butyl 3-[5-({[(4-methoxy-2-methylphenyl)(phenyl)methyl]carbamoyl}methyl)-1H-indol-3-yl]propanoate] |
| > 6.00 | 5.00 to 6.00 | COC(=O)Cc1c[nH]c2ccc(CC(=O)NC(c3ccccc3)c3ccc(Cl)cc3N3CCCC3)cc12 (stereo not drawn) [Cpd. 84, methyl 2-{5-[({[4-chloro-2-(pyrrolidin-1-yl)phenyl](phenyl)methyl}carbamoyl)methyl]-1H-indol-3-yl}acetate] |
| > 6.00 | > 6.00 | COC(=O)Cc1c[nH]c2ccc(CC(=O)NC(c3ccccc3)c3ccc(C)cc3N3CCCCC3)cc12 (stereo not drawn) [Cpd. 86, methyl 2-{5-[({[4-methyl-2-(piperidin-1-yl)phenyl](phenyl)methyl}carbamoyl)methyl]-1H-indol-3-yl}acetate] |
| > 6.00 | 5.00 to 6.00 | COC(=O)Cc1c[nH]c2ccc(CC(=O)NC(c3ccccc3)c3ccc(C(F)(F)F)cc3N3CCCC3)cc12 (stereo not drawn) [Cpd. 88, methyl 2-{5-[({phenyl[2-(pyrrolidin-1-yl)-4-(trifluoromethyl)phenyl]methyl}carbamoyl)methyl]-1H-indol-3-yl}acetate] |
| > 6.00 | 4.52 to 5.00 | CC(C)(C)OC(=O)CCc1c[nH]c2ccc(CC(=O)NC(c3ccccc3)c3ccc(Cl)cc3N3CCCC3)cc12 (stereo not drawn) [Cpd. 90, tert-butyl 3-{5-[({[4-chloro-2-(pyrrolidin-1-yl)phenyl](phenyl)methyl}carbamoyl)methyl]-1H-indol-3-yl}propanoate] |
| > 6.00 | 5.00 to 6.00 | COC(=O)Cc1c[nH]c2ccc(CC(=O)NC(c3ccccc3)c3ccc(C)cc3N3CCOCC3)cc12 (stereo not drawn) [Cpd. 96, methyl 2-{5-[({[4-methyl-2-(morpholin-4-yl)phenyl](phenyl)methyl}carbamoyl)methyl]-1H-indol-3-yl}acetate] |
| > 6.00 | 5.00 to 6.00 | COc1cc(C)ccc1C(NC(=O)Cc1ccc2[nH]cc(CCC(=O)OC(C)(C)C)c2c1)c1ccccc1 (stereo not drawn) [Cpd. 98, tert-butyl 3-[5-({[(2-methoxy-4-methylphenyl)(phenyl)methyl]carbamoyl}methyl)-1H-indol-3-yl]propanoate] |
| > 6.00 | > 6.00 | COc1ccc(C(NC(=O)Cc2ccc3[nH]cc(CCC(=O)OC(C)(C)C)c3c2)c2ccccc2)c(N2CCCC2)c1 (stereo not drawn) [Cpd. 108, tert-butyl 3-{5-[({[4-methoxy-2-(pyrrolidin-1-yl)phenyl](phenyl)methyl}carbamoyl)methyl]-1H-indol-3-yl}propanoate] |
| > 6.00 | 5.00 to 6.00 | COc1ccc(C(NC(=O)Cc2ccc3[nH]cc(CCC(=O)OC(C)(C)C)c3c2)c2ccccc2)c(N2CCCCC2)c1 (stereo not drawn) [Cpd. 110, tert-butyl 3-{5-[({[4-methoxy-2-(piperidin-1-yl)phenyl](phenyl)methyl}carbamoyl)methyl]-1H-indol-3-yl}propanoate] |
| > 6.00 | 5.00 to 6.00 | CCNc1cc(C)ccc1C(NC(=O)Cc1ccc2[nH]cc(CCC(=O)OC(C)(C)C)c2c1)c1ccccc1 (stereo not drawn) [Cpd. 119, tert-butyl 3-{5-[({[2-(ethylamino)-4-methylphenyl](phenyl)methyl}carbamoyl)methyl]-1H-indol-3-yl}propanoate] |
| > 6.00 | 5.00 to 6.00 | Cc1ccc(C(NC(=O)Cc2ccc3[nH]cc(CCC(=O)OC(C)(C)C)c3c2)c2ccccc2)c(NC(C)C)c1 (stereo not drawn) [Cpd. 125, tert-butyl 3-(5-{[({4-methyl-2-[(propan-2-yl)amino]phenyl}(phenyl)methyl)carbamoyl]methyl}-1H-indol-3-yl)propanoate] |
| > 6.00 | – | Cc1ccc(C(NC(=O)Cc2ccc3[nH]cc(CCC(=O)O)c3c2)c2ccccc2)c(N2CCCCCC2)c1 (stereo not drawn) [compound 251, 3-{5-[({[2-(azepan-1-yl)-4-methylphenyl](phenyl)methyl}carbamoyl)methyl]-1H-indol-3-yl}propanoic acid] |
| > 6.00 | – | Cc1cc(C(NC(=O)Cc2ccc3[nH]cc(CCC(=O)O)c3c2)c2ccccc2N2CCCCC2)oc1C (stereo not drawn) [compound 253, 3-[5-({[(4,5-dimethylfuran-2-yl)[2-(piperidin-1-yl)phenyl]methyl]carbamoyl}methyl)-1H-indol-3-yl]propanoic acid] |
| > 6.00 | – | Cc1ccc(C(NC(=O)Cc2ccc3[nH]cc(CCC(=O)O)c3c2)c2ccccc2OC(C)C)o1 (stereo not drawn) [compound 255, 3-[5-({[(5-methylfuran-2-yl)[2-(propan-2-yloxy)phenyl]methyl]carbamoyl}methyl)-1H-indol-3-yl]propanoic acid] |
| > 6.00 | – | CON(C)C(=O)Cc1c[nH]c2ccc(CC(=O)NC(c3ccccc3)c3ccccc3N3CCCCC3)cc12 (stereo not drawn) [compound 258, N-methoxy-N-methyl-2-{5-[({phenyl[2-(piperidin-1-yl)phenyl]methyl}carbamoyl)methyl]-1H-indol-3-yl}acetamide] |
| 5.00 to 6.00 | – | CC(C)CC(NC(=O)Nc1ccc2[nH]cc(CCC(=O)OC(C)(C)C)c2c1)c1ccccc1N1CCCCC1 (stereo not drawn) [compound 262, tert-butyl 3-{5-[({3-methyl-1-[2-(piperidin-1-yl)phenyl]butyl}carbamoyl)amino]-1H-indol-3-yl}propanoate] |
| > 6.00 | – | Cc1ccc(C(NC(=O)Cc2ccc3[nH]cc(CCC(=O)OC(C)(C)C)c3c2)c2ccccc2)c(N2CCN(Cc3ccccc3)CC2)c1 (stereo not drawn) [compound 263, tert-butyl 3-{5-[({[2-(4-benzylpiperazin-1-yl)-4-methylphenyl](phenyl)methyl}carbamoyl)methyl]-1H-indol-3-yl}propanoate] |
